Experimental data: US7074743B1, “Herbicidal composition comprising 4-iodo-2-[3-(4-methoxy-6-methyl-1,3,5-triazin-2-yl)ureidosulfonyl]benzoic esters” (priority 1995, dated 2006)

How the values were obtained:
Format in all cases: in vivo
Apera spica venti = assay: Herbicidal action on APESV, visual scoring vs untreated, post-emergence 2-4 leaf stage; conditions: Table 1
Protocol: (§1) The examples given below were performed in the greenhouse and, in some cases, in field trials.
(§2) The herbicides, or combinations, were applied in cereals after the weeds had emerged naturally using plot sprayers. After application, the results, such as damage to the crop plants and effect on broad-leaved weeds/grass weeds were assessed by means of visual scoring. The herbicidal action was assessed qualitatively and quantitatively by comparing untreated and treated plots on the basis of the effect on plant growth and the development of chloroses and necroses down to the complete destruction of the weeds (0–100%). The application was effected when the crop plants and weeds were in the 2–4 leaf stage. The test was evaluated approximately 4 weeks after application.
(§3) In the greenhouse experiments, the crop plants and broadleaved weeds/grass weeds were grown in No. 13 pots and treated in the 2–4 leaf stage. The pots were subsequently placed in the greenhouse under good growth conditions (temperature, atmospheric humidity, water supply).
(§4) The assessments were carried out similarly to those in the field trials, i.e. visual scoring of the treated plants in comparison with untreated control variants. These assessments were carried out 3 weeks after applying the test preparations and their combinations. The experiments had been set up in two replications.
(§5) To assess the combination effects, the activities of the individual components were added and compared with the activity of the mixtures in equal doses. It was frequently observed that the efficacies of the combinations exceeded the total of the individual activities.
(§6) In cases with less clear effects, the expected value was calculated using Colby's formula and compared with the empirically determined result. The calculated efficacy of a combination which is expected in theory is determined is using S.R. Colby's formula: “Calculation of synergistic and antagonistic responses of herbicide combinations”, Weeds 15 (1967), pages 20 to 22.
(§7) [formula] where • X=% damage caused by herbicide A at a rate of ×kg a.i./ha; • Y=% damage caused by herbicide B at a rate of y kg a.i./ha; • Z=% damage caused by a further herbicide C at a rate of z kg a.i./ha; • E=expected value, i.e. expected damage caused by herbicides A+B (or A+B+C) at x+y (or x+y+z) kg a.i./ha.
(§8) Synergistic effects were assumed to be when the empirical value exceeded the expected value. In the case of combinations with individual components with the same active substances, comparisons via the total formula were also possible.

Triticum aestivum = assay: Damage to crop plant TRZAW, visual scoring vs untreated
Protocol: as §1, §2, §3, §4

Phalaris canariensis = assay: Herbicidal action on PHACA, visual scoring vs untreated, post-emergence 2-4 leaf stage (greenhouse / field trials)
Protocol: as §1, §2, §3, §4, §5, §6, §7, §8

Lolium multiflorum = assay: Herbicidal action on LOLMU, visual scoring vs untreated, post-emergence 2-4 leaf stage; conditions: Table 3
Protocol: as §1, §2, §3, §4, §5, §6, §7, §8

Zea mays = assay: Damage to crop plant ZEAMA, visual scoring vs untreated
Protocol: as §1, §2, §3, §4

Echinochloa crus galli = assay: Herbicidal action on ECHCR, visual scoring vs untreated, post-emergence 2-4 leaf stage
Protocol: as §1, §2, §3, §4, §5, §6, §7, §8

Fallopia convolvulus = assay: Herbicidal action on FALCO, visual scoring vs untreated, post-emergence 2-4 leaf stage; conditions: Table 5
Protocol: as §1, §2, §3, §4, §5, §6, §7, §8

Viola arvensis = assay: Herbicidal action on VIOAR, visual scoring vs untreated, post-emergence 2-4 leaf stage; conditions: Table 7
Protocol: as §1, §2, §3, §4, §5, §6, §7, §8

Ambrosia elatior = assay: Herbicidal action on AMBEL, visual scoring vs untreated, post-emergence 2-4 leaf stage; conditions: Table 12; 4.5 g of ai/ha
Protocol: as §1, §2
(§9) In the greenhouse experiments, the crop plants and broadleaved weeds/grass weeds were grown in No. 13 pots and treated in the 2–4 leaf stage. […]
(§10) In cases with less clear effects, the expected value was calculated using Colby's formula and compared with the empirically determined result. The calculated efficacy of a combination which is expected in theory is determined is using S.R. Colby's formula: “Calculation of synergistic and antagonistic responses of herbicide combinations”, Weeds 15 (1967), pages 20 to 22. […]

Abuthilon theophrastis = assay: Herbicidal action on ABUTHE, visual scoring vs untreated, post-emergence 2-4 leaf stage; conditions: Table 12; 4.5 g of ai/ha
Protocol: as §1, §2, §9, §10

Centaurea cyanus = assay: Herbicidal action on CENCY, visual scoring vs untreated, post-emergence 2-4 leaf stage; conditions: Table 9
Protocol: as §1, §2, §3, §4, §5, §6, §7, §8

## COC(=O)C(C)Oc1ccc(Oc2ccc(Cl)cc2Cl)cc1 (racemic) [B3), diclofop-methyl]
Apera spica venti; 225 g of a.i./ha
  APESV % control: 0%
Apera spica venti; 450 g of a.i./ha
  APESV % control: 0%
Apera spica venti; 900 g of a.i./ha
  APESV % control: 8%
Triticum aestivum; Table 1, 225 g of a.i./ha
  TRZAW % damage: 0%
Triticum aestivum; Table 1, 450 g of a.i./ha
  TRZAW % damage: 0%
Triticum aestivum; Table 1, 900 g of a.i./ha
  TRZAW % damage: 0%
Phalaris canariensis; Table 1, 225 g of a.i./ha
  PHACA % control: 0%
Phalaris canariensis; Table 1, 450 g of a.i./ha
  PHACA % control: 0%
Phalaris canariensis; Table 1, 900 g of a.i./ha
  PHACA % control: 0%

## imazamethabenz-methyl [B8)]
Phalaris canariensis; Table 3, 375 g of a.i./ha
  PHACA % control: 0%
Phalaris canariensis; Table 3, 750 g of a.i./ha
  PHACA % control: 0%
Phalaris canariensis; Table 3, 1500 g of a.i./ha
  PHACA % control: 13%
Lolium multiflorum; 375 g of a.i./ha
  LOLMU % control: 0%
Lolium multiflorum; 750 g of a.i./ha
  LOLMU % control: 0%
Lolium multiflorum; 1500 g of a.i./ha
  LOLMU % control: 20%

## CCNc1nc(Cl)nc(NC(C)C)n1 [B36), 6-chloro-N-^2-ethyl-N-4-isopropyl-1,3,5-triazine-2,4-diamine]
Zea mays; Table 8, 375 g of a.i./ha
  ZEAMA % damage: 0%
Zea mays; Table 8, 750 g of a.i./ha
  ZEAMA % damage: 0%
Zea mays; Table 8, 1500 g of a.i./ha
  ZEAMA % damage: 0%
Zea mays; Table 8, 3000 g of a.i./ha
  ZEAMA % damage: 0%
Echinochloa crus galli; Table 8, 375 g of a.i./ha
  ECHCR % control: 0%
Echinochloa crus galli; Table 8, 750 g of a.i./ha
  ECHCR % control: 0%
Echinochloa crus galli; Table 8, 1500 g of a.i./ha
  ECHCR % control: 3%
Echinochloa crus galli; Table 8, 3000 g of a.i./ha
  ECHCR % control: 3%

## Nc1c(Cl)c(F)nc(OCC(=O)O)c1Cl [B21), 4-amino-3,5-dichloro-6-fluoro-2-pyridyloxyacetic acid]
Fallopia convolvulus; 50 g of a.i./ha
  FALCO % control: 73%
Fallopia convolvulus; 100 g of a.i./ha
  FALCO % control: 80%
Fallopia convolvulus; 200 g of a.i./ha
  FALCO % control: 95%

## COc1cc(OC)nc(NC(=O)NS(=O)(=O)c2ncccc2C(=O)N(C)C)n1 [B13), 1-(4,6-dimethoxypyrimidin-2-yl)-3-(3-dimethylcarbamoyl-2-pyridylsulfonyl)urea]
Zea mays; Table 4, 15 g of a.i./ha
  ZEAMA % damage: 0%
Zea mays; Table 4, 30 g of a.i./ha
  ZEAMA % damage: 0%
Zea mays; Table 4, 60 g of a.i./ha
  ZEAMA % damage: 2%
Echinochloa crus galli; Table 4, 15 g of a.i./ha
  ECHCR % control: 0%
Echinochloa crus galli; Table 4, 30 g of a.i./ha
  ECHCR % control: 73%
Echinochloa crus galli; Table 4, 60 g of a.i./ha
  ECHCR % control: 75%

## CCOC(=O)COC(=O)c1cc(Oc2ccc(C(F)(F)F)cc2Cl)ccc1[N+](=O)[O-] [B25), fluoroglycofen-ethyl]
Viola arvensis; 4 g of a.i./ha
  VIOAR % control: 3%
Viola arvensis; 8 g of a.i./ha
  VIOAR % control: 18%
Viola arvensis; 15 g of a.i./ha
  VIOAR % control: 38%
Viola arvensis; 30 g of a.i./ha
  VIOAR % control: 62%
Triticum aestivum; in vivo
  TRZAW % damage: 0%

## CCOC(=O)C(Cl)Cc1cc(-n2nc(C)n(C(F)F)c2=O)c(F)cc1Cl (stereo not shown) [B31), carfentrazone-ethyl]
Zea mays; Table 12, 4.5 g of ai/ha
  ZEAMA % damage: 5%
Ambrosia elatior
  AMBEL % control: 0%
Abuthilon theophrastis
  ABUTHE % control: 60%

## CCS(=O)(=O)c1cccnc1S(=O)(=O)NC(=O)Nc1nc(OC)cc(OC)n1 [B14), 1-(4,6-dimethoxypyrimidin-2-yl)-3-(3-ethylsulfonyl-2-pyridylsulfonyl) urea]
Echinochloa crus galli; Table 4, 5 g of a.i./ha
  ECHCR % control: 15%
Echinochloa crus galli; Table 4, 10 g of a.i./ha
  ECHCR % control: 60%
Echinochloa crus galli; Table 4, 20 g of a.i./ha
  ECHCR % control: 85%

## COC(=O)c1ccccc1S(=O)(=O)NC(=O)Nc1nc(C)nc(OC)n1 [B41), metsulfuron-methyl]
Centaurea cyanus; 1 g of a.i./ha
  CENCY % control: 0%
Centaurea cyanus; 3 g of a.i./ha
  CENCY % control: 0%
Centaurea cyanus; 5 g of a.i./ha
  CENCY % control: 0%
Centaurea cyanus; 10 g of a.i./ha
  CENCY % control: 0%
Triticum aestivum; Triticum aestivum, in vivo
  TRZAW % damage: 0%
Triticum aestivum; in vivo
  TRZAW % damage: 0%
